Laboratory results taken from patent US11753446B2, “Beta-hairpin peptidomimetics” (POLYPHOR AG, priority 2014, dated 2023).
Where a SMILES comes first, the peptide text is derived from it. Bridges are numbered along the chain shown (N, C = ends). Triazole bridges read from a SMILES are 1,4-linked. [ ]: non-standard residue; d: D form. Aha = [N-]=[N+]=NCC[C@H](N)C(=O)O; Tle = CC(C)(C)[C@H](N)C(=O)O; dDab = NCC[C@@H](N)C(=O)O; Orn = NCCC[C@H](N)C(=O)O; Pra = C#CC[C@H](N)C(=O)O; Dab = NCC[C@H](N)C(=O)O; Dap = NC[C@H](N)C(=O)O

What was measured:
[1] = test system: Acinetobacter baumannii DSM 30008; assay type: cell-based; settings: DSM 30008
Outline: (§1)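 Peptide MICs were determined by NCCLS broth microdilution in cation-adjusted Mueller-Hinton II broth. Inoculum was about 10^6 CFU/mL, matched to 0.5 McFarland, with peptides in two-fold serial dilutions. The broth contained Polysorbate 80 at 0.002% final concentration.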

[2] = test system: Escherichia coli ATCC 25922; assay type: cell-based; settings: ATCC 25922
Outline: as §1

[3] = test system: Klebsiella pneumoniae ATCC 13883; assay type: cell-based; settings: ATCC 13883
Outline: as §1

[4] = test system: human red blood cells (hRBC); assay: Hemolysis: hemolytic activity at 100 μg/mL, 1 h at 37° C.; settings: red cells of human, 1 h, 100
Outline: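 Peptides at 100 μg/mL incubated with washed 20% (v/v) human erythrocytes (~0.9×10^9 cells/mL) for 1 h at 37 °C with shaking. Released hemoglobin read at OD 540 nm in supernatant; 0% and 100% lysis from PBS/0.001% acetic acid and 2.5% Triton X-100.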

Structure (SMILES)	Acinetobacter baumannii DSM 30008 MIC [1] [mg/L]	Escherichia coli ATCC 25922 MIC [2] [mg/L]	Klebsiella pneumoniae ATCC 13883 MIC [3] [mg/L]	Hemolysis at 100 μg/mL [4] [%]
CC[C@H](C)[C@@H]1NC(=O)[C@H](Cc2ccc(O)cc2)NC(=O)[C@@H](C)NC(=O)[C@H](CO)NC(=O)[C@H](C)NC(=O)[C@H](C(C)(C)C)NC(=O)[C@H](CCN)NC(=O)[C@H](Cc2c[nH]c3ccccc23)NC(=O)[C@H](CCN)NC(=O)[C@@H](CCN)NC(=O)[C@H](CCCN)NC(=O)[C@H](CCN)NC(=O)[C@H](Cc2ccc(O)cc2)NC(=O)[C@H]([C@@H](C)O)NC1=O [Example 49, cyclo(-Ile-Thr-Tyr-Dab-Orn-^DDab-Dab-Trp-Dab-tBuGly-Ala-Ser-^DAla-Tyr-)] (HELM PEPTIDE1{A.S.[dA].Y.I.T.Y.[Dab].[Orn].[NCC[C@@H](N[*:1])C(=O)[*:2]].[Dab].W.[Dab].[CC(C)(C)[C@H](N[*:1])C(=O)[*:2]]}$PEPTIDE1,PEPTIDE1,1:R1-14:R2$$$V2.0)	4	2	2	2
CC(C)[C@@H]1NC(=O)[C@@H]2CCCN2C(=O)[C@H]2CCCN2C(=O)[C@H](CO)NC(=O)[C@@H]2CCn3cc(nn3)C[C@H](NC1=O)C(=O)N[C@@H](Cc1ccc(O)cc1)C(=O)N[C@@H](CCN)C(=O)N[C@@H](CN)C(=O)N[C@H](CCN)C(=O)N[C@@H](CCN)C(=O)N[C@@H](Cc1c[nH]c3ccccc13)C(=O)N[C@@H](CCN)C(=O)N[C@@H](C(C)(C)C)C(=O)N2 [Example 34, cyclo(-Val-Pra-Tyr-Dab-Dap-^DDab-Dab-Trp-Dab-tBuGly-Abu(4N3)-Ser-^DPro-Pro-)] (cyclo(V[Pra]Y[Dab][Dap][dDab][Dab]W[Dab][Tle][Aha]S[dP]P); triazole 2-11)	4	4	2	0
CC[C@@H]1NC(=O)[C@H](CCCNC(=N)N)NC(=O)[C@@H](CCN)NC(=O)[C@H](C(C)C)NC(=O)[C@@H]2CSSC[C@H](NC1=O)C(=O)N[C@@H](Cc1ccc(O)cc1)C(=O)N[C@@H](CC(N)=O)C(=O)N[C@@H](CCCN)C(=O)N[C@H](CCN)C(=O)N[C@@H](CCN)C(=O)N[C@@H](Cc1c[nH]c3ccccc13)C(=O)N[C@@H](CO)C(=O)N[C@@H](Cc1ccc(O)cc1)C(=O)N2 [Example 61, cyclo(-Abu-Cys-Tyr-Asn-Orn-^DDab-Dab-Trp-Ser-Tyr-Cys-Val-^DDab-Arg-)] (HELM PEPTIDE1{[Abu].C.Y.N.[Orn].[NCC[C@@H](N[*:1])C(=O)[*:2]].[Dab].W.S.Y.C.V.[NCC[C@@H](N[*:1])C(=O)[*:2]].R}$PEPTIDE1,PEPTIDE1,2:R3-11:R3|PEPTIDE1,PEPTIDE1,1:R1-14:R2$$$V2.0)	1.5	2	2	1
CC(C)C[C@@H]1NC(=O)[C@H](CN)NC(=O)[C@@H](CCN)NC(=O)[C@H](C(C)C)NC(=O)[C@@H]2CSSC[C@H](NC1=O)C(=O)N[C@@H](Cc1ccc(O)cc1)C(=O)N[C@@H](CC(N)=O)C(=O)N[C@@H](CCCN)C(=O)N[C@H](CCN)C(=O)N[C@@H](CCN)C(=O)N[C@@H](Cc1c[nH]c3ccccc13)C(=O)N[C@@H](CO)C(=O)N[C@@H](Cc1ccc(O)cc1)C(=O)N2 [Example 68, cyclo(-Leu-Cys-Tyr-Asn-Orn-^DDab-Dab-Trp-Ser-Tyr-Cys-Val-^DDab-Dap-)] (cyclo(CV[dDab][Dap]LCYN[Orn][dDab][Dab]WSY); disulfide 1-6)	1.25	0.75	0.5	1
CC[C@H](C)[C@@H]1NC(=O)[C@H](CCCNC(=N)N)NC(=O)[C@@H](CCN)NC(=O)[C@H](C(C)C)NC(=O)[C@@H]2CSSC[C@H](NC1=O)C(=O)N[C@@H](Cc1ccc(O)cc1)C(=O)N[C@@H](CC(N)=O)C(=O)N[C@@H](CCCN)C(=O)N[C@H](CCN)C(=O)N[C@@H](CCN)C(=O)N[C@@H](Cc1c[nH]c3ccccc13)C(=O)N[C@@H](CO)C(=O)N[C@@H](Cc1ccc(O)cc1)C(=O)N2 [Example 70, cyclo(-Ile-Cys-Tyr-Asn-Orn-^DDab-Dab-Trp-Ser-Tyr-Cys-Val-^DDab-Arg-)] (HELM PEPTIDE1{C.V.[NCC[C@@H](N[*:1])C(=O)[*:2]].R.I.C.Y.N.[Orn].[NCC[C@@H](N[*:1])C(=O)[*:2]].[Dab].W.S.Y}$PEPTIDE1,PEPTIDE1,1:R3-6:R3|PEPTIDE1,PEPTIDE1,1:R1-14:R2$$$V2.0)	2.25	1	1	1
CC(C)[C@@H]1NC(=O)[C@H](CCCNC(=N)N)NC(=O)[C@@H](CCN)NC(=O)[C@H](C(C)C)NC(=O)[C@@H]2CSSC[C@H](NC1=O)C(=O)N[C@@H](Cc1ccc(O)cc1)C(=O)N[C@@H](CC(N)=O)C(=O)N[C@@H](CCCN)C(=O)N[C@H](CCN)C(=O)N[C@@H](CCN)C(=O)N[C@@H](Cc1c[nH]c3ccccc13)C(=O)N[C@@H](CO)C(=O)N[C@@H](Cc1ccc(O)cc1)C(=O)N2 [Example 57, cyclo(-Val-Cys-Tyr-Asn-Orn-^DDab-Dab-Trp-Ser-Tyr-Cys-Val-^DDab-Arg-)] (HELM PEPTIDE1{C.V.[NCC[C@@H](N[*:1])C(=O)[*:2]].R.V.C.Y.N.[Orn].[NCC[C@@H](N[*:1])C(=O)[*:2]].[Dab].W.S.Y}$PEPTIDE1,PEPTIDE1,1:R3-6:R3|PEPTIDE1,PEPTIDE1,1:R1-14:R2$$$V2.0)	1.25	1	1.5	1
CC(C)C[C@@H]1NC(=O)[C@H](CCCNC(=N)N)NC(=O)[C@@H](CCN)NC(=O)[C@H](Cc2ccc(O)cc2)NC(=O)[C@@H]2CSSC[C@H](NC1=O)C(=O)N[C@@H](Cc1ccc(O)cc1)C(=O)N[C@@H](CC(N)=O)C(=O)N[C@@H](CCCN)C(=O)N[C@H](CCN)C(=O)N[C@@H](CCN)C(=O)N[C@@H](Cc1c[nH]c3ccccc13)C(=O)N[C@@H](CO)C(=O)N[C@@H](Cc1ccc(O)cc1)C(=O)N2 [Example 11, cyclo(-Leu-Cys-Tyr-Asn-Orn-^DDab-Dab-Trp-Ser-Tyr-Cys-Tyr-^DDab-Arg-)] (HELM PEPTIDE1{C.Y.N.[Orn].[NCC[C@@H](N[*:1])C(=O)[*:2]].[Dab].W.S.Y.C.Y.[NCC[C@@H](N[*:1])C(=O)[*:2]].R.L}$PEPTIDE1,PEPTIDE1,1:R3-10:R3|PEPTIDE1,PEPTIDE1,1:R1-14:R2$$$V2.0)	0.5	0.25	0.25	4
CC(C)C[C@@H]1NC(=O)[C@H](CCN)NC(=O)[C@@H](CCN)NC(=O)[C@H](CCCN)NC(=O)[C@H](CC(N)=O)NC(=O)[C@H](Cc2ccc(O)cc2)NC(=O)[C@@H]2CSSC[C@H](NC(=O)[C@H](C(C)(C)C)NC(=O)[C@H](CO)NC1=O)C(=O)N[C@@H](C(C)C)C(=O)N[C@H](CCN)C(=O)N[C@@H](CCCNC(=N)N)C(=O)N[C@@H](CC(C)C)C(=O)N2 [Example 4, cyclo(-Leu-Cys-Tyr-Asn-Orn-^DDab-Dab-Leu-Ser-tBuGly-Cys-Val-^DDab-Arg-)] (cyclo(CV[dDab]RLCYN[Orn][dDab][Dab]LS[Tle]); disulfide 1-6)	0.25	0.75	0.5	4
CC(C)C[C@@H]1NC(=O)[C@H](CCN)NC(=O)[C@@H](CCN)NC(=O)[C@H](C(C)C)NC(=O)[C@@H]2CSSC[C@H](NC1=O)C(=O)N[C@@H](Cc1ccc(O)cc1)C(=O)N[C@@H](CC(N)=O)C(=O)N[C@@H](CCCN)C(=O)N[C@H](CCN)C(=O)N[C@@H](CCN)C(=O)N[C@@H](Cc1c[nH]c3ccccc13)C(=O)N[C@@H](CO)C(=O)N[C@@H](Cc1ccc(O)cc1)C(=O)N2 [Example 51, cyclo(-Leu-Cys-Tyr-Asn-Orn-^DDab-Dab-Trp-Ser-Tyr-Cys-Val-^DDab-Dab-)] (HELM PEPTIDE1{C.V.[NCC[C@@H](N[*:1])C(=O)[*:2]].[Dab].L.C.Y.N.[Orn].[NCC[C@@H](N[*:1])C(=O)[*:2]].[Dab].W.S.Y}$PEPTIDE1,PEPTIDE1,1:R3-6:R3|PEPTIDE1,PEPTIDE1,1:R1-14:R2$$$V2.0)	0.75	0.75	0.75	2
CC(C)C[C@@H]1NC(=O)[C@H](CCCNC(=N)N)NC(=O)[C@H]2CCCN2C(=O)[C@H](C(C)C)NC(=O)[C@H]([C@@H](C)O)NC(=O)[C@H](C(C)C)NC(=O)[C@@H]2CSSC[C@H](NC(=O)[C@H](Cc3ccc(O)cc3)NC(=O)[C@H]([C@@H](C)O)NC1=O)C(=O)N[C@@H](CCN)C(=O)N[C@H](CCN)C(=O)N[C@@H](CCN)C(=O)N[C@@H](Cc1c[nH]c3ccccc13)C(=O)N2 [Example 36, cyclo(-Leu-Thr-Tyr-Cys-Dab-^DDab-Dab-Trp-Cys-Val-Thr-Val-^DPro-Arg-)] (HELM PEPTIDE1{C.[Dab].[NCC[C@@H](N[*:1])C(=O)[*:2]].[Dab].W.C.V.T.V.[dP].R.L.T.Y}$PEPTIDE1,PEPTIDE1,1:R3-6:R3|PEPTIDE1,PEPTIDE1,1:R1-14:R2$$$V2.0)	2	4	2	2
